Data reported in ChEMBL document CHEMBL5052856, “Inhibitors of apol1 and methods of using same” (2021).

The molecules below were run against Apolipoprotein L1 (Homo sapiens, UniProt O14791) (assay: Inhibition of APOL1 G1 variant in human HEK293-T-REx cells measured by Thallium assay).
Type: cell-based

Structure (SMILES) | IC50 [nM]
NC(=O)C(CO)NC(=O)[C@H]1C[C@@H](c2c(-c3ccc(F)cc3)[nH]c3c(F)cc(F)cc32)C1 (stereo partly specified) | > 1000
O=C1NCCCC1NC(=O)[C@H]1C[C@@H](c2c(-c3ccc(F)cc3)[nH]c3c(F)cc(F)cc32)C1 (stereo partly specified) | > 1000
O=C(NC(CO)(CO)CO)O[C@H]1C[C@H](c2c(-c3ccc(F)cc3)[nH]c3c(F)cc(F)cc32)C1 | < 250
O=C(NC1CC(O)C1)O[C@H]1C[C@H](c2c(-c3ccc(F)cc3)[nH]c3c(F)cc(F)cc32)C1 (stereo partly specified) | > 1000
CN(CC1CC(c2c(-c3ccc(F)cc3)[nH]c3c(F)cc(F)cc23)C1)C(=O)N1CCC1 (stereo unspecified) | > 1000
O=C(CNC(=O)[C@H]1C[C@H](c2c(-c3ccc(F)cc3)[nH]c3c(F)cc(F)cc32)C1)NC[C@H](O)C(F)(F)F | > 1000
CC(CO)(CO)NC(=O)NC[C@H]1C[C@H](c2c(-c3ccc(F)cc3)[nH]c3c(F)cc(F)cc32)C1 | > 1000
C[C@@H](O)CNC(=O)N[C@H]1C[C@H](c2c(-c3ccc(F)cc3)[nH]c3c(F)cc(F)cc32)C1 | > 1000
O=C1NCC[C@H]1NC(=O)[C@H]1C[C@@H](c2c(-c3ccc(F)cc3)[nH]c3c(F)cc(F)cc32)C1 | > 1000
O=C(NC(CO)CO)N[C@H]1C[C@H](c2c(-c3ccc(F)cc3)[nH]c3c(F)cc(F)cc32)C1 | > 1000
O=C(NC[C@H]1C[C@H](c2c(-c3ccc(F)cc3)[nH]c3c(F)cc(F)cc32)C1)NC1CC(O)C1 (stereo partly specified) | > 1000
C[C@H](O)CNC(=O)N(C)CC1CC(c2c(-c3ccc(F)cc3)[nH]c3c(F)cc(F)cc23)C1 (stereo partly specified) | > 1000
O=C(N[C@H]1CCOC1)O[C@H]1C[C@H](c2c(-c3ccc(F)cc3)[nH]c3c(F)cc(F)cc32)C1 | > 1000
O=C1NC[C@@H](O)[C@@H]1NC(=O)[C@H]1C[C@@H](c2c(-c3ccc(F)cc3)[nH]c3c(F)cc(F)cc32)C1 | > 1000
O=C(N[C@H]1CCNC1=O)O[C@H]1C[C@H](c2c(-c3ccc(F)cc3)[nH]c3c(F)cc(F)cc32)C1 (relative stereo) | > 1000
O=C(CC1CC(c2c(-c3ccc(F)cc3)[nH]c3c(F)cc(F)cc23)C1)N[C@H](CO)C(F)(F)F (stereo partly specified) | > 1000
O=C1CN(C(=O)[C@H]2C[C@@H](c3c(-c4ccc(F)cc4)[nH]c4c(F)cc(F)cc43)C2)CCN1 | > 1000
O=C(NC[C@H]1C[C@H](c2c(-c3ccc(F)cc3)[nH]c3c(F)cc(F)cc32)C1)N[C@H]1C[C@H](O)C1 | > 1000
C[C@H](O)CNC(=O)O[C@H]1C[C@H](c2c(-c3ccc(F)cc3)[nH]c3c(F)cc(F)cc32)C1 | > 1000
O=C(NC[C@@H](O)C(F)(F)F)NC[C@H]1C[C@H](c2c(-c3ccc(F)cc3)[nH]c3c(F)cc(F)cc32)C1 (relative stereo) | > 1000
CC(O)C(C)NC(=O)O[C@H]1C[C@H](c2c(-c3ccc(F)cc3)[nH]c3c(F)cc(F)cc32)C1 (stereo partly specified) | > 1000
O=C(NC(CO)(CO)CO)[C@H]1C[C@H](c2c(-c3ccc(F)cc3)[nH]c3c(F)cc(F)cc32)C1 | < 250

Structure (SMILES) | IC50 [nM]
CC1(C(=O)NCCO)CC(c2c(-c3ccc(F)cc3)[nH]c3c(F)cc(F)cc23)C1 (stereo unspecified) | 0.25
CC1(C(=O)N[C@H]2CCNC2=O)CC(c2c(-c3ccc(F)cc3)[nH]c3c(F)cc(F)cc23)C1 (stereo partly specified) | 0.25
CC(C)(O)CNC(=O)NC[C@H]1C[C@H](c2c(-c3ccc(F)cc3)[nH]c3c(F)cc(F)cc32)C1 | > 1000
O=C(NCCO)NC[C@H]1C[C@H](c2c(-c3ccc(F)cc3)[nH]c3c(F)cc(F)cc32)C1 | > 1000
C[C@@H](O)CNC(=O)O[C@H]1C[C@H](c2c(-c3ccc(F)cc3)[nH]c3c(F)cc(F)cc32)C1 | > 1000
O=C(NC1(CO)CCC1)[C@H]1C[C@@H](c2c(-c3ccc(F)cc3)[nH]c3c(F)cc(F)cc32)C1 | 0.25
O=C(NCC1(O)CC1)NC[C@H]1C[C@H](c2c(-c3ccc(F)cc3)[nH]c3c(F)cc(F)cc32)C1 | > 1000
CC1(O)CC(NC(=O)O[C@H]2C[C@H](c3c(-c4ccc(F)cc4)[nH]c4c(F)cc(F)cc43)C2)C1 (stereo partly specified) | > 1000
O=C(NCC1CC1)O[C@H]1C[C@H](c2c(-c3ccc(F)cc3)[nH]c3c(F)cc(F)cc32)C1 | > 1000
O=C(NC1CC(O)C1)[C@H]1C[C@@H](c2c(-c3ccc(F)cc3)[nH]c3c(F)cc(F)cc32)C1 (stereo partly specified) | > 1000
O=C(NCC1(O)COC1)NC[C@H]1C[C@H](c2c(-c3ccc(F)cc3)[nH]c3c(F)cc(F)cc32)C1 | > 1000
C[C@H](CO)NC(=O)O[C@H]1C[C@H](c2c(-c3ccc(F)cc3)[nH]c3c(F)cc(F)cc32)C1 | 0.25
O=C(NC1CC1)O[C@H]1C[C@H](c2c(-c3ccc(F)cc3)[nH]c3c(F)cc(F)cc32)C1 | 0.25
CO[C@H]1C[C@@H](NC(=O)O[C@H]2C[C@H](c3c(-c4ccc(F)cc4)[nH]c4c(F)cc(F)cc43)C2)C1 | > 1000
O=C(CN[C@H]1C[C@H](c2c(-c3ccc(F)cc3)[nH]c3c(F)cc(F)cc32)C1)NC1CC1 | > 1000
O=C(NC[C@H](O)C(F)(F)F)NC[C@H]1C[C@H](c2c(-c3ccc(F)cc3)[nH]c3c(F)cc(F)cc32)C1 | > 1000
O=C(CNC[C@H]1C[C@H](c2c(-c3ccc(F)cc3)[nH]c3c(F)cc(F)cc32)C1)NC1CC1 | 0.25
O=C(NC[C@H]1C[C@H](c2c(-c3ccc(F)cc3)[nH]c3c(F)cc(F)cc32)C1)N[C@H]1CC[C@@H]1O | > 1000
CC1CC(NC(=O)NC[C@H]2C[C@H](c3c(-c4ccc(F)cc4)[nH]c4c(F)cc(F)cc43)C2)C(=O)O1 (stereo partly specified) | > 1000
CON(C)C(=O)CN[C@H]1C[C@H](c2c(-c3ccc(F)cc3)[nH]c3c(F)cc(F)cc32)C1 | > 1000
C[C@@H](CO)NC(=O)O[C@H]1C[C@H](c2c(-c3ccc(F)cc3)[nH]c3c(F)cc(F)cc32)C1 | 0.25

Next, values leading:

IC50 [nM] | Structure (SMILES)
0.25 | O=C(NCCO)C1CC(Cc2c(-c3ccc(F)cc3)[nH]c3c(F)cc(F)cc23)C1 (stereo unspecified)
> 1000 | O=C(N[C@@H](CO)C(F)(F)F)C1CC(Cc2c(-c3ccc(F)cc3)[nH]c3c(F)cc(F)cc23)C1 (stereo partly specified)
> 1000 | Cc1cc(CNC(=O)C2CC(Cc3c(-c4ccc(F)cc4)[nH]c4c(F)cc(F)cc34)C2)nn1C (stereo unspecified)
> 1000 | C[C@H](O)[C@H](CO)NC(=O)[C@H]1C[C@@H](c2c(-c3ccc(F)cc3)[nH]c3c(F)cc(F)cc32)C1
> 1000 | C[C@H](NCC1CC(c2c(-c3ccc(F)cc3)[nH]c3c(F)cc(F)cc23)C1)C(N)=O (stereo partly specified)
> 1000 | CC(C)C[C@H](CO)NC(=O)C1CC(Cc2c(-c3ccc(F)cc3)[nH]c3c(F)cc(F)cc23)C1 (stereo partly specified)
0.25 | CNC(=O)CN[C@H]1C[C@H](c2c(-c3ccc(F)cc3)[nH]c3c(F)cc(F)cc32)C1
> 1000 | C[C@@H](O)CNC(=O)[C@H]1C[C@@H](c2c(-c3ccc(F)cc3)[nH]c3c(F)cc(F)cc32)C1
> 1000 | Cn1cncc1CNC(=O)C1CC(Cc2c(-c3ccc(F)cc3)[nH]c3c(F)cc(F)cc23)C1 (stereo unspecified)
> 1000 | C[C@@H](O)CNC(=O)NC[C@H]1C[C@H](c2c(-c3ccc(F)cc3)[nH]c3c(F)cc(F)cc32)C1
> 1000 | Cn1ccnc1CNC(=O)C1CC(Cc2c(-c3ccc(F)cc3)[nH]c3c(F)cc(F)cc23)C1 (stereo unspecified)
> 1000 | CC1(CNC(=O)C2CC(Cc3c(-c4ccc(F)cc4)[nH]c4c(F)cc(F)cc34)C2)CCOC1 (stereo unspecified)
> 1000 | O=C(NC(CO)CO)[C@H]1C[C@@H](c2c(-c3ccc(F)cc3)[nH]c3c(F)cc(F)cc32)C1
> 1000 | Cc1noc(CNC(=O)C2CC(Cc3c(-c4ccc(F)cc4)[nH]c4c(F)cc(F)cc34)C2)n1 (stereo unspecified)
> 1000 | CC(NC(=O)C1CC(Cc2c(-c3ccc(F)cc3)[nH]c3c(F)cc(F)cc23)C1)c1ccn(C)n1 (stereo unspecified)
0.25 | O=C(NCCO)[C@H]1C[C@@H](c2c(-c3ccc(F)cc3)[nH]c3c(F)cc(F)cc32)C1
> 1000 | O=C(NC1(CO)CC1)[C@H]1C[C@@H](c2c(-c3ccc(F)cc3)[nH]c3c(F)cc(F)cc32)C1
> 1000 | CC(C)C[C@@H](CO)NC(=O)C1CC(Cc2c(-c3ccc(F)cc3)[nH]c3c(F)cc(F)cc23)C1 (stereo partly specified)
> 1000 | CC[C@@H](CO)NC(=O)[C@H]1C[C@@H](c2c(-c3ccc(F)cc3)[nH]c3c(F)cc(F)cc32)C1

IC50 [nM] | Structure (SMILES)
> 1000 | O=C(NCc1cnn(CC(F)(F)F)c1)C1CC(Cc2c(-c3ccc(F)cc3)[nH]c3c(F)cc(F)cc23)C1 (stereo unspecified)
0.25 | CC(CO)(CO)NC(=O)[C@H]1C[C@@H](c2c(-c3ccc(F)cc3)[nH]c3c(F)cc(F)cc32)C1
> 1000 | O=C(NCc1ncc[nH]1)C1CC(Cc2c(-c3ccc(F)cc3)[nH]c3c(F)cc(F)cc23)C1 (stereo unspecified)
> 1000 | O=C(NCc1ccc[nH]c1=O)C1CC(Cc2c(-c3ccc(F)cc3)[nH]c3c(F)cc(F)cc23)C1 (stereo unspecified)
> 1000 | CC(C)NC(=O)CNC[C@H]1C[C@H](c2c(-c3ccc(F)cc3)[nH]c3c(F)cc(F)cc32)C1
> 1000 | O=C(NC1(CCO)CC1)C1CC(Cc2c(-c3ccc(F)cc3)[nH]c3c(F)cc(F)cc23)C1 (stereo unspecified)
> 1000 | C[C@@H](CO)NC(=O)NC[C@H]1C[C@H](c2c(-c3ccc(F)cc3)[nH]c3c(F)cc(F)cc32)C1
> 1000 | Cn1cnc(CNC(=O)C2CC(Cc3c(-c4ccc(F)cc4)[nH]c4c(F)cc(F)cc34)C2)c1 (stereo unspecified)
0.25 | O=C(NCCO)O[C@H]1C[C@H](c2c(-c3ccc(F)cc3)[nH]c3c(F)cc(F)cc32)C1
> 1000 | CC(O)(CO)CNC(=O)C1CC(Cc2c(-c3ccc(F)cc3)[nH]c3c(F)cc(F)cc23)C1 (stereo unspecified)
> 1000 | O=C(NCC1CCCO1)C1CC(Cc2c(-c3ccc(F)cc3)[nH]c3c(F)cc(F)cc23)C1 (stereo unspecified)
> 1000 | CC1(O)CC(NC(=O)C2CC(Cc3c(-c4ccc(F)cc4)[nH]c4c(F)cc(F)cc34)C2)C1 (stereo unspecified)
> 1000 | Cc1nn(C)cc1CNC(=O)C1CC(Cc2c(-c3ccc(F)cc3)[nH]c3c(F)cc(F)cc23)C1 (stereo unspecified)
0.25 | O=C(NCC(F)(F)F)[C@H]1C[C@@H](c2c(-c3ccc(F)cc3)[nH]c3c(F)cc(F)cc32)C1
> 1000 | CNC(=O)N(C)CC1CC(c2c(-c3ccc(F)cc3)[nH]c3c(F)cc(F)cc23)C1 (stereo unspecified)
> 1000 | Cc1cnc(CNC(=O)O[C@H]2C[C@H](c3c(-c4ccc(F)cc4)[nH]c4c(F)cc(F)cc43)C2)o1
< 250 | Cn1cnc(CNC(=O)C2(F)CC(c3c(-c4ccc(F)cc4)[nH]c4c(F)cc(F)cc34)C2)c1 (stereo unspecified)
> 1000 | O=C1CC(CNC(=O)C2CC(Cc3c(-c4ccc(F)cc4)[nH]c4c(F)cc(F)cc34)C2)CN1 (stereo unspecified)
> 1000 | C[C@H](CO)NC(=O)NC[C@H]1C[C@H](c2c(-c3ccc(F)cc3)[nH]c3c(F)cc(F)cc32)C1
